# Assay results from PMC8621770, “New Compounds with Bioisosteric Replacement of Classic Choline Kinase Inhibitors Show Potent Antiplasmodial Activity” (Pharmaceutics, 2021).
# Columns and labels:
# [1] = molecular target: T1, PfCK (Plasmodium falciparum, UniProt Q8IM71); experiment: Spectrophotometric coupled enzymatic assay for PfCK activity (substrate choline); format: biochemical; conditions: read-out: PfCK Fractional Activity at 25 µM
# T1 construct: A truncated form of PfCK (Δ79-440) featuring an N-terminal 6× His-tag; 6xHis (N); host or cells: Escherichia coli BL21 (DE3) Star
# [2] = test system: P. falciparum strain 3D7; experiment: Antimalarial activity, P. falciparum lactate dehydrogenase growth inhibition assay; format: cell-based, Plasmodium falciparum; conditions: Plasmodium falciparum, Erythrocyte; P. falciparum 3D7 in human erythrocytes, 72 h, LDH readout; read-out: IC50 a (In vitro IC50 values against P. falciparum)
# [3] = Aggregation of compound solutions for the enzymatic assays; format: physicochemical; conditions: even at 5 mM concentration
# Excerpt: As a result, it was difficult to measure their exact concentration, which is crucial for enzymatic assays.
# T1 sequence (Q8IM71 entry or part of it): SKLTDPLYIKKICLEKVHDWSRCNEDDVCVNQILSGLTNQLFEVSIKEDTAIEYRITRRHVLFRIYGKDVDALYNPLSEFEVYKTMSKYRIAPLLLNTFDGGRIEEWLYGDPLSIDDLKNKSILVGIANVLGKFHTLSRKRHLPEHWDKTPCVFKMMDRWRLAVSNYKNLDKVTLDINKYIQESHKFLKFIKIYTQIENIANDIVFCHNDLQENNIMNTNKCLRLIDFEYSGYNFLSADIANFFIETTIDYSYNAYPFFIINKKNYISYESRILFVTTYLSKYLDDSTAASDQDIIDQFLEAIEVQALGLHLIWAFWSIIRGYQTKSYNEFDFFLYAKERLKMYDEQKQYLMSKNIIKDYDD
smiles,measurement,setting,value
"[Br-].c1ccc(-c2ccc(C[n+]3cnc(N4CCCC4)c4ccsc43)cc2)cc1 [Fa-M3, 1-([1,1’-biphenyl]-4-ylmethyl)-4-(pyrrolidin-1-yl)thieno[2,3-d]pyrimidin-1-ium bromide]",remaining activity at 25 µM,[1],96.9 ± 18.7%
same,melting point,,275 to 278 °C
same,IC50,[2],35.1 nM
same,aggregation,[3],severe aggregation
